Here are results for two compounds from ChEMBL document CHEMBL3272271, “Folate antagonists. 13. 2,4-Diamino-6-](alpha,alpha,alpha-trifluoro-m-tolyl)thio]quinazoline and related 2,4-diamino-6-[(phenyl- and naphthyl)thio]quinazolines, a unique class of antimetabolites with extraordinary antimalarial and antibacterial effects” (J Med Chem, 1978).

Values after ≈ are worked out from the molar mass of the structure shown. Active and inactive are the calls of the source. No cut-off for these calls is given here.

The subject of series [1] is Plasmodium gallinaceum. In words: Antimalarial activity against trophozoite-induced Plasmodium gallinaceum infected in white leghorn chicken assessed as increase in mean survival days of host at 80 mg/kg, sc administered 72 hrs after infection relative to control. The class given is functional. As to conditions: route subcutaneous.
Series [2] relates to Staphylococcus aureus. In words: Antibacterial activity against Staphylococcus aureus UC-96 by gradient plate test. Format: functional.
In series [3] the test system is Plasmodium berghei. Description: Antimalarial activity against Plasmodium berghei infected in mouse assessed as disease cure from parasite infection at 80 mg/kg, sc administered 72 hrs after infection. The class given is functional, organism-based. Also noted: dose 80 mg/kg.
A further series relates to Pseudomonas aeruginosa. Description: Antibacterial activity against Pseudomonas aeruginosa 28 by gradient plate test. The class given is functional.
In series [4] the test system is Plasmodium gallinaceum. In words: Antimalarial activity against trophozoite-induced Plasmodium gallinaceum infected in white leghorn chicken assessed as disease cure from parasite infection at 320 mg/kg, sc administered 72 hrs after infection. The class given is functional, organism-based. Also noted: dose 320 mg/kg.
In series [5] the test system is Plasmodium gallinaceum. In words: Antimalarial activity against trophozoite-induced Plasmodium gallinaceum infected in white leghorn chicken assessed as increase in mean survival days of host at 5 mg/kg, sc administered 72 hrs after infection relative to control. The class given is functional. As to conditions: route subcutaneous.
The subject of series [6] is Staphylococcus aureus. Description: Antibacterial activity against drug-resistant Staphylococcus aureus S18713 by gradient plate test. Format: functional.
Series [7] deals with Plasmodium berghei. Description: Antimalarial activity against Plasmodium berghei infected in mouse assessed as increase in mean survival days of host at 10 mg/kg, sc administered 72 hrs after infection relative to control. Format: functional. As to conditions: route subcutaneous.
The subject of series [8] is Plasmodium gallinaceum. Description: Antimalarial activity against trophozoite-induced Plasmodium gallinaceum infected in white leghorn chicken assessed as increase in mean survival days of host at 20 mg/kg, sc administered 72 hrs after infection relative to control. Format: functional. The note with it: route subcutaneous.
Another series has as its system Shigella sonnei. In words: Antibacterial activity against Shigella sonnei C-10 by gradient plate test. The class given is functional.
For series [9], the system named is Plasmodium berghei. In words: Antimalarial activity against Plasmodium berghei infected in mouse assessed as increase in mean survival days of host at 20 mg/kg, sc administered 72 hrs after infection relative to control. Format: functional. The note with it: route subcutaneous.
Series [10] deals with Plasmodium berghei. Description: Antimalarial activity against Plasmodium berghei infected in mouse assessed as increase in mean survival days of host at 1.25 mg/kg, sc administered 72 hrs after infection relative to control. The class given is functional. As to conditions: route subcutaneous.
Series [11] relates to Plasmodium berghei. Description: Antimalarial activity against Plasmodium berghei infected in mouse assessed as disease cure from parasite infection at 40 mg/kg, sc administered 72 hrs after infection. The class given is functional, organism-based. Also noted: dose 40 mg/kg.
Another series deals with Enterococcus faecalis. In words: Antibacterial activity against Streptococcus faecalis MGH-2 by gradient plate test. The class given is functional.
Another series has as its system Escherichia coli. In words: Antibacterial activity against Escherichia coli Vogel by gradient plate test. Format: functional.
The subject of series [12] is Plasmodium berghei. Description: Antimalarial activity against Plasmodium berghei infected in mouse assessed as increase in mean survival days of host at 5 mg/kg, sc administered 72 hrs after infection relative to control. Format: functional. As to conditions: route subcutaneous.
Another series concerns Mus musculus. Description: Toxicity in Plasmodium berghei infected mouse assessed as mortality at 640 mg/kg, sc administered 72 hrs after infection measured after 2 to 5 days. Format: organism-based. Also noted: dose 640 mg/kg, route subcutaneous. The note with it: in vivo.
The test system of series [13] is Plasmodium gallinaceum. In words: Antimalarial activity against trophozoite-induced Plasmodium gallinaceum infected in white leghorn chicken assessed as increase in mean survival days of host at 0.63 mg/kg, sc administered 72 hrs after infection relative to control. Format: functional. The note with it: route subcutaneous.
In series [14] the test system is Plasmodium gallinaceum. Description: Antimalarial activity against trophozoite-induced Plasmodium gallinaceum infected in white leghorn chicken assessed as increase in mean survival days of host at 320 mg/kg, sc administered 72 hrs after infection relative to control. As to conditions: route subcutaneous. Format: functional.
Series [15] deals with Plasmodium gallinaceum. Description: Antimalarial activity against trophozoite-induced Plasmodium gallinaceum infected in white leghorn chicken assessed as increase in mean survival days of host at 1.25 mg/kg, sc administered 72 hrs after infection relative to control. The class given is functional. As to conditions: route subcutaneous.
In series [16] the test system is Plasmodium berghei. Description: Antimalarial activity against Plasmodium berghei infected in mouse assessed as disease cure from parasite infection at 640 mg/kg, sc administered 72 hrs after infection. The class given is functional, organism-based. Also noted: dose 640 mg/kg.
The test system of series [17] is Plasmodium gallinaceum. In words: Antimalarial activity against trophozoite-induced Plasmodium gallinaceum infected in white leghorn chicken assessed as increase in mean survival days of host at 40 mg/kg, sc administered 72 hrs after infection relative to control. Format: functional. As to conditions: route subcutaneous.
In series [18] the test system is Plasmodium berghei. In words: Antimalarial activity against Plasmodium berghei infected in mouse assessed as increase in mean survival days of host at 40 mg/kg, sc administered 72 hrs after infection relative to control. The note with it: route subcutaneous. The class given is functional.
In series [19] the test system is Plasmodium berghei. Description: Antimalarial activity against Plasmodium berghei infected in mouse assessed as disease cure from parasite infection at 160 mg/kg, sc administered 72 hrs after infection. Format: functional, organism-based. Also noted: dose 160 mg/kg.
The subject of series [20] is Plasmodium berghei. Description: Antimalarial activity against Plasmodium berghei infected in mouse assessed as disease cure from parasite infection at 320 mg/kg, sc administered 72 hrs after infection. The class given is functional, organism-based. Also noted: dose 320 mg/kg.
Series [21] concerns Plasmodium gallinaceum. In words: Antimalarial activity against trophozoite-induced Plasmodium gallinaceum infected in white leghorn chicken assessed as increase in mean survival days of host at 10 mg/kg, sc administered 72 hrs after infection relative to control. The class given is functional. As to conditions: route subcutaneous.
Series [22] has as its system Plasmodium gallinaceum. Description: Antimalarial activity against trophozoite-induced Plasmodium gallinaceum infected in white leghorn chicken assessed as increase in mean survival days of host at 2.5 mg/kg, sc administered 72 hrs after infection relative to control. The class given is functional. The note with it: route subcutaneous.
Series [23] deals with Plasmodium berghei. Description: Antimalarial activity against Plasmodium berghei infected in mouse assessed as increase in mean survival days of host at 2.5 mg/kg, sc administered 72 hrs after infection relative to control. The class given is functional. As to conditions: route subcutaneous.
The test system of series [24] is Plasmodium gallinaceum. Description: Antimalarial activity against trophozoite-induced Plasmodium gallinaceum infected in white leghorn chicken assessed as disease cure from parasite infection at 160 mg/kg, sc administered 72 hrs after infection. Format: functional, organism-based. Also noted: dose 160 mg/kg.
The test system of series [25] is Plasmodium gallinaceum. In words: Antimalarial activity against trophozoite-induced Plasmodium gallinaceum infected in white leghorn chicken assessed as increase in mean survival days of host at 160 mg/kg, sc administered 72 hrs after infection relative to control. The class given is functional. The note with it: route subcutaneous.
In series [26] the test system is Plasmodium berghei. In words: Ratio of quinine hydrochloride SD90 to compound SD90 for trophozoite-induced Plasmodium berghei infected in mouse assessed as daily dose required to suppression of 90% parasite infection administered with diet for 6 days. Format: functional.
Series [27] concerns Plasmodium berghei. Description: Antimalarial activity against trophozoite-induced Plasmodium berghei infected in mouse assessed as daily dose required to suppression of 90% parasite infection administered with diet for 6 days. Format: functional.
For series [28], the system named is Mycobacterium tuberculosis. Description: Antibacterial activity against Mycobacterium tuberculosis H37Ra by gradient plate test. Format: functional.

Regarding `Cc1ccccc1Sc1ccc2nc(N)nc(N)c2c1`, the MST with Plasmodium gallinaceum [1] is 12 days; with Plasmodium gallinaceum [5], 2.4 days; in the series on Plasmodium berghei [7], 9.9 days; in the series on Plasmodium gallinaceum [8], 7.6 days; with Plasmodium berghei [9], 10.5 days; in the series on Plasmodium berghei [10] it was 1.1 days. Also, the MST in the series on Plasmodium berghei [12] turned out to be 7.3 days; in the series on Plasmodium gallinaceum [13], 0 days; in the series on Plasmodium gallinaceum [14], 16 days; in the series with Plasmodium gallinaceum [15], 0 days; in the series with Plasmodium gallinaceum [17], 11 days; in the series on Plasmodium berghei [18] it was 17 days. Besides, the MST in the series on Plasmodium gallinaceum [21] worked out at 6.6 days; in the series on Plasmodium gallinaceum [22] it was 0 days; in the series with Plasmodium berghei [23], 5.5 days; in the series on Plasmodium gallinaceum [25] it was 17 days. Further, the MIC (in general, the least concentration at which growth counts as inhibited) in the series with Staphylococcus aureus [2] is under 0.25 mg/L; in the series with Pseudomonas aeruginosa it was over 25 mg/L; in the series on Staphylococcus aureus [6], under 0.25 mg/L; against Shigella sonnei it was 1 mg/L (≈ 3.54 µM); with Enterococcus faecalis, under 0.25 mg/L; against Escherichia coli, under 0.25 mg/L. Also, the outcome in the series on Plasmodium berghei [3], in the series on Plasmodium gallinaceum [4], with Plasmodium berghei [11], in the series on Plasmodium berghei [16], in the series with Plasmodium berghei [19] and in the series with Plasmodium berghei [20] was Active. The outcome in the series with Plasmodium gallinaceum [24] was Active. Besides, the Activity entry in the series with Mus musculus is on record as “Toxic”. In the series with Plasmodium berghei [26], the Ratio was determined as 18. Also, the SD90 in the series on Plasmodium berghei [27] is recorded as 4.1 mg/kg/day.
On to `Nc1nc(N)c2c(Cl)c(Sc3ccc(F)cc3)ccc2n1`, for which the MIC in the series with Staphylococcus aureus [2] is under 0.25 mg/L; against Pseudomonas aeruginosa, over 25 mg/L; with Staphylococcus aureus [6], under 0.25 mg/L; with Shigella sonnei, under 0.25 mg/L; against Enterococcus faecalis, under 0.25 mg/L; with Escherichia coli it was under 0.25 mg/L. This compound also returned a minimum inhibitory concentration (MIC) in series [28] of 5 mg/L (≈ 15.6 µM). The outcome in the series on Plasmodium berghei [3], in the series on Plasmodium berghei [11], in the series with Plasmodium berghei [16], with Plasmodium berghei [19] and in the series on Plasmodium berghei [20] was Active. Further, the MST in the series on Plasmodium berghei [9] stood at 6.9 days; in the series with Plasmodium berghei [18] it was 15.6 days. For the same compound, the Activity result in the series on Mus musculus is given as “Toxic”.
